The subject of series [1] is SMN2 minigene mRNA (SMN2-A minigene) in HEK293H cells. The series can be described thus: SMN2 minigene mRNA splicing RT-qPCR assay in cultured cells. In kind it is cell-based, human. The following applies: Homo sapiens, HEK293-H; concentration increasing full length SMN2 mRNA 1.5-fold relative to vehicle-treated cells; HEK293H cells with SMN2-A minigene, 24 hours, 7-point concentration data; read-out: EC1.5x for production of full length SMN2 mRNA. Summed up:
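EC1.5× = concentration raising full-length SMN2 minigene mRNA 1.5-fold over vehicle, from 7-point curves in duplicate. Stably transfected HEK293H cells exposed 24 h at 37 °C; lysates assayed by multiplex RT-qPCR, minigene FL signal normalized to GAPDH via modified ΔΔCt.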
(In general: Quantitative PCR measures a nucleic acid by following its amplification.)

Series [2] concerns Smn protein in SMA patient fibroblast cells (GM03813). The series can be described thus: Smn protein assay in cultured cells (SMN HTRF). In kind it is cell-based, human. The following applies: SMA patient fibroblast cells, 48 hours; for maximum fold (Fold) increase of Smn protein: 7-point concentration data, fold relative to vehicle control; for EC1.5x for Smn protein expression: 7-point concentration curve, SMN HTRF, concentration producing 1.5 times Smn protein vs DMSO vehicle control. The method, boiled down:
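Smn protein quantified by HTRF with anti-SMN d2/kryptate pair, 665/620 nm ratio blank-corrected, in RIPA lysates of GM03813 fibroblasts after 48 h compound exposure (7 concentrations, 3.16-fold steps, triplicates). Values: concentration producing 1.5× vehicle Smn level, and maximal fold increase.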
For orientation: TR-FRET usually uses a lanthanide donor and a delayed reading to cut background.

A word on the melting point: it is the temperature of the solid-liquid transition.

Molecule `COc1ccc(-c2cc(=O)n3cc(N4C[C@@H](C)N[C@@H](C)C4)ccc3n2)cc1` [Compound 4, 7-[(3R,5S)-3,5-dimethylpiperazin-1-yl]-2-(4-methoxyphenyl)-4H-pyrido[1,2-a]pyrimidin-4-one] registered a melting point of 185 to 187 °C. Further, the EC (1.5-fold increase) in series [1] was in the range of 1 to 3 µM. Besides, the “maximum fold (Fold) increase of Smn protein” value (“maximum fold (Fold) increase” for short) in series [2] is recorded as “* (A maximum fold increase of ≤1.2 is indicated by one star (*))”.
The matching figures for `C[C@H]1CN(c2ccc3nc(-c4ccc(OC(F)F)cc4)cc(=O)n3c2)CCN1` [Compound 60, 2-[4-(difluoromethoxy)phenyl]-7-[(3S)-3-methylpiperazin-1-yl]-4H-pyrido[1,2-a]pyrimidin-4-one]: 166 to 168 °C, 1 to 3 µM and “* (A maximum fold increase of ≤1.2 is indicated by one star (*))”.
The matching figures for `Cc1cn2ccc(-c3cc(=O)n4cc(C5CCN(C)CC5)ccc4n3)cc2n1` [Compound 559, 2-(2-methylimidazo[1,2-a]pyridin-7-yl)-7-(1-methylpiperidin-4-yl)-4H-pyrido[1,2-a]pyrimidin-4-one]: 255 to 260 °C, 1 to 3 µM and “* (A maximum fold increase of ≤1.2 is indicated by one star (*))”.
Regarding `CCN1CCC(c2ccc3nc(-c4cc5c(C)nc(C)cn5n4)cc(=O)n3n2)CC1` [Compound 514, 2-(4,6-dimethylpyrazolo[1,5-a]pyrazin-2-yl)-7-(1-ethylpiperidin-4-yl)-4H-pyrimido[1,2-b]pyridazin-4-one], the melting point lay in the range of 283 to 285 °C. In addition, the EC (1.5-fold increase) in series [1] fell in the range of 0.1 to 0.3 µM. Besides, in series [2], the “EC1.5x for Smn protein expression” value was “** (an EC1.5× between >1 μM and ≤3 μM is indicated by two stars (**))”; the “maximum fold (Fold) increase” value is “***** (a fold increase >1.65 is indicated by five stars (*****))”.
`Cc1nc2ccc(-c3cc(=O)n4cc(N5CCN(C)[C@@H](C)C5)ccc4n3)cc2o1` [Compound 234, 7-[(3S)-3,4-dimethylpiperazin-1-yl]-2-(2-methyl-1,3-benzoxazol-6-yl)-4H-pyrido[1,2-a]pyrimidin-4-one] returned a melting point of 205 to 209 °C. Further, the EC (1.5-fold increase) in series [1] was less than 0.1 µM. Further, in series [2], the “EC1.5x for Smn protein expression” value is “**** (an EC1.5x≤0.3 μM is indicated by four stars (****))” and the “maximum fold (Fold) increase” value was “***** (a fold increase >1.65 is indicated by five stars (*****))”.
The matching figures for `CN1CC=C(c2ccc3nc(-c4ccc5nn(C)cc5c4)cc(=O)n3c2)CC1` [Compound 476, 2-(2-methyl-2H-indazol-5-yl)-7-(1-methyl-1,2,3,6-tetrahydropyridin-4-yl)-4H-pyrido[1,2-a]pyrimidin-4-one]: 226 to 228 °C, less than 0.1 µM, “**** (an EC1.5x≤0.3 μM is indicated by four stars (****))” and “***** (a fold increase >1.65 is indicated by five stars (*****))”.
For `CCc1nc(C)cn2nc(-c3cc(=O)n4cc(N5CCC(N(C)C)CC5)ccc4n3)cc12` [Compound 550, 7-[4-(dimethylamino)piperidin-1-yl]-2-(4-ethyl-6-methylpyrazolo[1,5-a]pyrazin-2-yl)-4H-pyrido[1,2-a]pyrimidin-4-one], in that order: 258 to 260 °C, less than 0.1 µM, “**** (an EC1.5x≤0.3 μM is indicated by four stars (****))” and “***** (a fold increase >1.65 is indicated by five stars (*****))”.
Take `COc1cccc(-c2cc(=O)n3cc(N4CCN[C@H](C)C4)ccc3n2)c1` [Compound 24, 2-(3-methoxyphenyl)-7-[(3R)-3-methylpiperazin-1-yl]-4H-pyrido[1,2-a]pyrimidin-4-one]: the melting point fell in the range of 164 to 166 °C. The EC (1.5-fold increase) in series [1] lay within 1 to 3 µM. Also, in series [2], the “EC1.5x for Smn protein expression” value is “* (An EC1.5× for Smn protein expression between >3 μM and ≤10 μM is indicated by one star (*))”; the “maximum fold (Fold) increase” value is “*** (a fold increase between >1.35 and ≤1.5 is indicated by three stars (***))”.
In the case of `Cn1cc2cc(-c3cc(=O)n4cc(C5CCN(CCO)CC5)ncc4n3)ccc2n1` [Compound 569, 7-[1-(2-hydroxyethyl)piperidin-4-yl]-2-(2-methyl-2H-indazol-5-yl)-4H-pyrazino[1,2-a]pyrimidin-4-one], the melting point lay in the range of 230 to 232 °C. In addition, the EC (1.5-fold increase) in series [1] is less than 0.1 µM. Also, in series [2], the “EC1.5x for Smn protein expression” value is on record as “**** (an EC1.5x≤0.3 μM is indicated by four stars (****))” and the “maximum fold (Fold) increase” value was “***** (a fold increase >1.65 is indicated by five stars (*****))”.
Molecule `Cn1cc2cc(-c3cc(=O)n4cc(N5CCNCC5)ccc4n3)ccc2n1` [Compound 137, 2-(2-methyl-2H-indazol-5-yl)-7-(piperazin-1-yl)-4H-pyrido[1,2-a]pyrimidin-4-one] came in with a melting point of 175 to 180 °C. Moreover, in series [1], the EC (1.5-fold increase) fell in the range of 0.1 to 0.3 µM. Moreover, in series [2], the “EC1.5x for Smn protein expression” value was “*** (an EC1.5× between >0.3 μM and ≤1 μM is indicated by three stars (***))”; the “maximum fold (Fold) increase” value is “***** (a fold increase >1.65 is indicated by five stars (*****))”.
For `COc1ccc(-c2cc(=O)n3cc(C4=CCN(C(C)C)CC4)ccc3n2)cc1OC` [Compound 363, 2-(3,4-dimethoxyphenyl)-7-[1-(propan-2-yl)-1,2,3,6-tetrahydropyridin-4-yl]-4H-pyrido[1,2-a]pyrimidin-4-one], the melting point was in the range of 116 to 118 °C. For the same molecule, the EC (1.5-fold increase) in series [1] lay within 0.3 to 1 µM. For the same molecule, the “maximum fold (Fold) increase” value in series [2] was “** (a fold increase between >1.2 and ≤1.35 is indicated by two stars (**))”.
The molecule `C[C@H]1CN(c2ccc3nc(-c4ccccc4)cc(=O)n3c2)CCN1` [Compound 34, 7-[(3S)-3-methylpiperazin-1-yl]-2-phenyl-4H-pyrido[1,2-a]pyrimidin-4-one] came in with a melting point of 170 to 173 °C. Further, the EC (1.5-fold increase) in series [1] was 1 to 3 µM. The “maximum fold (Fold) increase” value in series [2] was “** (a fold increase between >1.2 and ≤1.35 is indicated by two stars (**))”.
As to `Cc1cn2cc(-c3cc(=O)n4nc(C5CCN(CCO)CC5)ccc4n3)cc(Cl)c2n1` [Compound 526, 2-(8-chloro-2-methylimidazo[1,2-a]pyridin-6-yl)-7-[1-(2-hydroxyethyl)piperidin-4-yl]-4H-pyrimido[1,2-b]pyridazin-4-one], the melting point lay in the range of 255 to 257 °C. In series [1], the EC (1.5-fold increase) fell in the range of 0.3 to 1 µM. In series [2], the “EC1.5x for Smn protein expression” value was “** (an EC1.5× between >1 μM and ≤3 μM is indicated by two stars (**))”; the “maximum fold (Fold) increase” value was “***** (a fold increase >1.65 is indicated by five stars (*****))”.
As to `Cc1cc(-c2cc(=O)n3cc(N4CCNCC4)ccc3n2)cc2cn(C)nc12` [Compound 738, 2-(2,7-dimethyl-2H-indazol-5-yl)-7-(piperazin-1-yl)-4H-pyrido[1,2-a]pyrimidin-4-one], the melting point lay within 194 to 196 °C. In series [1], the EC (1.5-fold increase) was less than 0.1 µM. In series [2], the “EC1.5x for Smn protein expression” value was “**** (an EC1.5x≤0.3 μM is indicated by four stars (****))” and the “maximum fold (Fold) increase” value is reported as “***** (a fold increase >1.65 is indicated by five stars (*****))”.
`COc1ccc(-c2cc(=O)n3cc(N4CCN[C@H](C)C4)ccc3n2)cc1` [Compound 3, 2-(4-methoxyphenyl)-7-[(3R)-3-methylpiperazin-1-yl]-4H-pyrido[1,2-a]pyrimidin-4-one] had a melting point of 152 to 154 °C. In addition, the EC (1.5-fold increase) in series [1] lay within 0.3 to 1 µM. In addition, in series [2], the “EC1.5x for Smn protein expression” value was “** (an EC1.5× between >1 μM and ≤3 μM is indicated by two stars (**))”; the “maximum fold (Fold) increase” value is “*** (a fold increase between >1.35 and ≤1.5 is indicated by three stars (***))”.
Consider `CCCc1nc(C)cn2nc(-c3cc(=O)n4cc(N5CCN(CC)CC5)ccc4n3)cc12` [Compound 725, 7-(4-ethylpiperazin-1-yl)-2-(6-methyl-4-propylpyrazolo[1,5-a]pyrazin-2-yl)-4H-pyrido[1,2-a]pyrimidin-4-one], for which the melting point fell in the range of 231 to 233 °C. Moreover, the EC (1.5-fold increase) in series [1] lay in the range of 0.1 to 0.3 µM. In series [2], the “EC1.5x for Smn protein expression” value was “*** (an EC1.5× between >0.3 μM and ≤1 μM is indicated by three stars (***))”; the “maximum fold (Fold) increase” value was “***** (a fold increase >1.65 is indicated by five stars (*****))”.
Molecule `CCc1cc(-c2cc(=O)n3cc(N4CCN5CCC[C@H]5C4)ccc3n2)cn2cc(C)nc12` [Compound 795, 2-(8-ethyl-2-methylimidazo[1,2-a]pyridin-6-yl)-7-[(8aS)-hexahydropyrrolo[1,2-a]pyrazin-2(1H)-yl]-4H-pyrido[1,2-a]pyrimidin-4-one] came in with a melting point of 229 to 233 °C. Moreover, the EC (1.5-fold increase) in series [1] is less than 0.1 µM. In series [2], the “EC1.5x for Smn protein expression” value is given as “**** (an EC1.5x≤0.3 μM is indicated by four stars (****))” and the “maximum fold (Fold) increase” value is given as “***** (a fold increase >1.65 is indicated by five stars (*****))”.

The values above are taken from patent US11753407B2, “Compounds for treating spinal muscular atrophy” (PTC Therapeutics, Inc., priority 2012, dated 2023).
